pKi: −log10 of the molar value.
Molecular target: D(2) dopamine receptor (Homo sapiens, UniProt P14416)
Assay: ChEBML_61120
Description: Binding affinity for Dopamine receptor D2 by displacement of [3H]-spiperone

D(2) dopamine receptor, sequence (P14416 whole entry): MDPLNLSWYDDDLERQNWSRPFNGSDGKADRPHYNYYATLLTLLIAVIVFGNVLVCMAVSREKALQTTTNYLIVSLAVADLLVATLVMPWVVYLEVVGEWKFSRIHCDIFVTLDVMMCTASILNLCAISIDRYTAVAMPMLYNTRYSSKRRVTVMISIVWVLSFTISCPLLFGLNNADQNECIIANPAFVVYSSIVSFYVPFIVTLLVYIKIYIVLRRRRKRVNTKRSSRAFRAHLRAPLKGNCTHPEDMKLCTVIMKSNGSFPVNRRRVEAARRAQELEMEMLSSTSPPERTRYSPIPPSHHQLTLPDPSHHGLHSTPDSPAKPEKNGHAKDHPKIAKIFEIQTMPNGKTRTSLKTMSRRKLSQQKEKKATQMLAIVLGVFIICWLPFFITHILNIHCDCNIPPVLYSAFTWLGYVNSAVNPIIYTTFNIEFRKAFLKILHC

pKi	SMILES
7.24	CN1CCOc2c(C(=O)NC[C@H]3CCCN3CCc3ccccc3)cc(Cl)cc21 [6-Chloro-4-methyl-3,4-dihydro-2H-benzo[1,4]oxazine-8-carboxylic acid ((R)-1-phenethyl-pyrrolidin-2-ylmethyl)-amide]
6.10	CN1CCOc2c(C(=O)NC[C@@H]3CCCN3CCc3ccccc3)cc(Cl)cc21 [6-Chloro-4-methyl-3,4-dihydro-2H-benzo[1,4]oxazine-8-carboxylic acid ((S)-1-phenethyl-pyrrolidin-2-ylmethyl)-amide]

Reference: BindingDB's records for doi:10.1016/s0960-894x(00)00030-5 (Yoshitomi Pharmaceutical Industries, 2000)
